Assay results: the supplement of paper PMC10307832

Legend:
Experiment in all cases: relative viability (nuclei count vs DMSO), 5 days (fraction); higher = more cells survive
[1] = compound: C#Cc1cccc(Nc2ncnc3cc(OC)c(OCCCCCCC(=O)NO)cc23)c1 [CUDC-101] + O=C(c1cc(Cc2n[nH]c(=O)c3ccccc23)ccc1F)N1CCN(C(=O)C2CC2)CC1 [Olaparib] (partner 8 µM)
Outline: (§1)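 Cells from lung cancer lines were seeded into 1536-well plates and, one day later, dosed by pin tool. Treatments were either a single drug or a fixed dose of an anchor drug with five library-drug doses (not always all listed) in √10 steps. After 5 days, nuclei were stained in a one-step fixation (final 0.05% Triton X-100, 1% formaldehyde, 1 ug/ml Hoechst) and counted on 4× images, and relative viability is the treated-to-vehicle nuclei ratio, as the median of duplicate plates.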

[2] = compound: COc1cc2/c(=N/c3ccc(Br)cc3F)nc[nH]c2cc1OCC1CCN(C)CC1 [Vandetanib] + O=C(c1cc(Cc2n[nH]c(=O)c3ccccc23)ccc1F)N1CCN(C(=O)C2CC2)CC1 [Olaparib] (partner 8 µM)
Outline: as §1

[3] = compound: COc1cc(N2CCC(N3CCN(C)CC3)CC2)ccc1Nc1ncc(Cl)c(Nc2ccccc2S(=O)(=O)C(C)C)n1 [NVP-TAE684] + CS(=O)(=O)N1CCN(Cc2cc3nc(-c4cccc5[nH]ncc45)nc(N4CCOCC4)c3s2)CC1 [Pictilisib] (partner 1 µM)
Outline: as §1

[4] = compound: COc1cc(N2CCC(N3CCN(C)CC3)CC2)ccc1Nc1ncc(Cl)c(Nc2ccccc2S(=O)(=O)C(C)C)n1 [NVP-TAE684] + NC(=O)Nc1cc(-c2cccc(F)c2)sc1C(=O)N[C@H]1CCCNC1 [AZD7762] (partner 0.2 µM)
Outline: as §1

| Cell Line | relative viability ([1]; first compound 0.03162 µM) | relative viability ([1]; first compound 0.1 µM) | relative viability ([1]; first compound 0.3162 µM) | relative viability ([1]; first compound 1 µM) | relative viability ([2]; first compound 0.02 µM) | relative viability ([2]; first compound 0.06325 µM) | relative viability ([2]; first compound 0.2 µM) | relative viability ([2]; first compound 0.6325 µM) | relative viability ([2]; first compound 2 µM) | relative viability ([3]; first compound 0.2 µM) | relative viability ([3]; first compound 0.6325 µM) | relative viability ([3]; first compound 2 µM) | relative viability ([4]; first compound 0.2 µM) | relative viability ([4]; first compound 0.6325 µM) | relative viability ([4]; first compound 2 µM) | relative viability ([1]; first compound 0.01 µM) |
| --- | --- | --- | --- | --- | --- | --- | --- | --- | --- | --- | --- | --- | --- | --- | --- | --- |
| NCI-H1703 | 0.389 | 0.489 | 0.662 | 0.428 | 0.458 | 0.267 | 0.385 | 0.342 | 0.303 | 0.225 | 0.243 | 0.172 | 0.0907 | 0.102 | 0.0966 | – |
| NCI-H727 | 0.623 | 0.708 | 0.699 | 0.461 | 0.727 | 0.68 | 0.662 | 0.739 | 0.621 | 0.373 | 0.388 | 0.261 | 0.588 | 0.58 | 0.344 | 0.797 |
| NCI-H838 | 0.784 | 0.807 | 0.649 | 0.489 | 0.773 | 0.769 | 0.776 | 0.764 | 0.74 | 0.408 | 0.356 | 0.235 | – | 0.857 | 0.853 | 0.802 |
| NCI-H1944 | 0.349 | 0.353 | 0.333 | 0.235 | 0.414 | 0.396 | 0.306 | 0.377 | 0.397 | 0.334 | 0.308 | 0.3 | 0.507 | 0.441 | 0.348 | 0.4 |
| LC-2-ad | 0.69 | 0.698 | 0.699 | 0.608 | 0.673 | 0.711 | 0.695 | 0.792 | 0.714 | 0.333 | 0.578 | 0.344 | 0.808 | 0.818 | 0.427 | 0.719 |
| LOU-NH91 | 0.779 | 0.76 | 0.754 | 0.624 | 0.901 | 0.788 | 0.813 | 0.732 | 0.679 | 0.635 | 0.462 | 0.481 | 0.782 | 0.425 | 0.532 | 0.906 |
| NCI-H647 | 0.522 | 0.67 | 0.554 | 0.342 | 0.626 | 0.633 | 0.547 | 0.502 | 0.454 | 0.429 | 0.381 | 0.473 | 0.41 | 0.408 | 0.201 | 0.547 |
| NCI-H1666 | 0.741 | 0.717 | 0.751 | 0.713 | 0.787 | 0.749 | 0.812 | 0.758 | 0.754 | 0.31 | 0.348 | 0.274 | 0.898 | 0.889 | 0.652 | 0.777 |
| A-427 | 0.671 | 0.722 | 0.694 | 0.607 | 0.735 | 0.852 | 0.71 | 0.711 | 0.694 | 0.735 | – | 0.652 | 0.69 | 0.528 | 0.366 | 0.711 |
| NCI-H2170 | 0.625 | 0.576 | 0.583 | 0.386 | 0.639 | 0.615 | 0.546 | 0.609 | 0.663 | 0.272 | 0.248 | 0.275 | 1.04 | 0.814 | 0.785 | 0.643 |
| NCI-H1395 | 0.558 | 0.447 | 0.435 | 0.405 | 0.511 | 0.487 | 0.442 | 0.523 | 0.494 | 0.659 | 0.61 | 0.589 | 0.417 | 0.367 | 0.397 | 0.472 |
| NCI-H650 | 0.377 | 0.337 | 0.299 | 0.185 | 0.359 | 0.361 | 0.392 | 0.409 | 0.445 | 0.789 | 0.69 | 0.497 | 1.03 | 0.848 | 0.853 | 0.393 |
| NCI-H1437 | 0.649 | 0.642 | 0.605 | 0.537 | 0.588 | 0.667 | 0.643 | 0.615 | 0.612 | 0.369 | 0.433 | 0.297 | 1.21 | 1.09 | 1.07 | 0.676 |
| HCC-366 | 0.353 | 0.325 | 0.345 | 0.245 | 0.438 | 0.34 | 0.389 | 0.362 | 0.31 | 0.0975 | 0.105 | 0.113 | 0.269 | 0.194 | 0.218 | 0.363 |
| HCC-78 | 0.688 | 0.821 | 0.584 | 0.341 | 0.823 | 0.756 | 0.748 | 0.913 | 0.703 | 0.207 | 0.138 | 0.172 | 0.603 | 0.52 | 0.376 | 1.01 |
| HCC-44 | 1.01 | 0.893 | 0.972 | 1.07 | 0.914 | 0.944 | 0.948 | 0.973 | 1 | 0.658 | 0.602 | 0.412 | 1.03 | 1.08 | 1.03 | 0.964 |
| NCI-H1355 | 0.711 | 0.726 | 0.693 | 0.585 | 0.754 | 0.665 | 0.734 | 0.825 | 0.684 | 0.467 | 0.323 | 0.343 | 0.862 | 0.691 | 0.479 | 0.756 |
| NCI-H1993 | 0.963 | 1.02 | 1.1 | 0.667 | 1.06 | 0.977 | 1.16 | 0.911 | 0.893 | – | 0.781 | 0.832 | 0.772 | 0.826 | 0.584 | 1.04 |
